From article PMC9276671, “A first-in-human Phase I dose-escalation trial of the novel therapeutic peptide, ALM201, demonstrates a favourable safety profile in unselected patients with ovarian cancer and other advanced solid tumours” (British Journal of Cancer, 2022)
No end group written: not given here.

Test: Plasma pharmacokinetics of ALM201 in Phase I patients (validated LC-MS/MS, Phoenix WinNonlin)
Details: human, plasma, sc; for level at 3 h: day 1 cycle 1, 3 h after dosing; for Tmax: median; for Tmax / AUC(0-t) / Cmax: plasma LC-MS/MS; for AUC(0-t): AUC0-t; for AUC(0-t) / Cmax: Gmean (CV); for level at 0.25 h: day 1 cycle 1, 0.25 h after dosing; for level at 0.75 h: day 1 cycle 1, 0.75 h after dosing; for level at 4 h: day 1 cycle 1, 4 h after dosing
[1] = 40 mg, 40 mg SC, day 1 cycle 1, n = 1
[2] = 40 mg, 40 mg SC, day 3 cycle 1, n = 1
[3] = 40 mg, 40 mg SC, day 18 cycle 1, n = 1
[4] = 40 mg, 40 mg SC, day 18 cycle 2, n = 1
[5] = 40 mg, Plasma concentration, geometric mean (CV%), 40 mg SC, n = 1, LC-MS/MS
[6] = 80 mg, 80 mg SC, day 1 cycle 1, n = 3
[7] = 80 mg, 80 mg SC, day 3 cycle 1, n = 3
[8] = 80 mg, 80 mg SC, day 18 cycle 1, n = 2, CV not calculated
[9] = 80 mg, 80 mg SC, day 18 cycle 2, n = 1
[10] = 80 mg, Plasma concentration, geometric mean (CV%), 80 mg SC, n = 3, LC-MS/MS

IRQQPRDPPTETLELEVSPDPAS [ALM201] gave a level at 1.5 h (20 mg, Plasma concentration, geometric mean (CV%), 20 mg SC, day 1 cycle 1, 1.5 h after dosing, n = 1, LC-MS/MS) of 542 ng/mL, a level at 2 h (20 mg, Plasma concentration, geometric mean (CV%), 20 mg SC, day 1 cycle 1, 2 h after dosing, n = 1, LC-MS/MS) of 417 ng/mL and a level at 3 h (20 mg, Plasma concentration, geometric mean (CV%), 20 mg SC, n = 1, LC-MS/MS) of 224 ng/mL. The level at 0.5 h (20 mg, Plasma concentration, geometric mean (CV%), 20 mg SC, day 3 cycle 1, 0.5 h after dosing, n = 1, LC-MS/MS) was 210 ng/mL, the level at 1 h (20 mg, Plasma concentration, geometric mean (CV%), 20 mg SC, day 3 cycle 1, 1 h after dosing, n = 1, LC-MS/MS) was 614 ng/mL and the level at 1.5 h (20 mg, Plasma concentration, geometric mean (CV%), 20 mg SC, day 3 cycle 1, 1.5 h after dosing, n = 1, LC-MS/MS) was 532 ng/mL. It also gave a level at 2 h (20 mg, Plasma concentration, geometric mean (CV%), 20 mg SC, day 3 cycle 1, 2 h after dosing, n = 1, LC-MS/MS) of 377 ng/mL, a level at 3.5 h (20 mg, Plasma concentration, geometric mean (CV%), 20 mg SC, day 3 cycle 1, 3.5 h after dosing, n = 1, LC-MS/MS) of 134 ng/mL and a level at 0.5 h (20 mg, Plasma concentration, geometric mean (CV%), 20 mg SC, day 18 cycle 1, 0.5 h after dosing, n = 1, LC-MS/MS) of 194 ng/mL. For the same sequence, the level at 1 h (20 mg, Plasma concentration, geometric mean (CV%), 20 mg SC, day 18 cycle 1, 1 h after dosing, n = 1, LC-MS/MS) was 319 ng/mL, the level at 1.5 h (20 mg, Plasma concentration, geometric mean (CV%), 20 mg SC, day 18 cycle 1, 1.5 h after dosing, n = 1, LC-MS/MS) was 314 ng/mL and the level at 2 h (20 mg, Plasma concentration, geometric mean (CV%), 20 mg SC, day 18 cycle 1, 2 h after dosing, n = 1, LC-MS/MS) was 224 ng/mL. For the same sequence, the level at 3.5 h (20 mg, Plasma concentration, geometric mean (CV%), 20 mg SC, day 18 cycle 1, 3.5 h after dosing, n = 1, LC-MS/MS) was 113 ng/mL, the level at 0.5 h (20 mg, Plasma concentration, geometric mean (CV%), 20 mg SC, day 18 cycle 2, 0.5 h after dosing, n = 1, LC-MS/MS) was 279 ng/mL and the level at 1 h (20 mg, Plasma concentration, geometric mean (CV%), 20 mg SC, day 18 cycle 2, 1 h after dosing, n = 1, LC-MS/MS) was 394 ng/mL. The level at 1.5 h (20 mg, Plasma concentration, geometric mean (CV%), 20 mg SC, day 18 cycle 2, 1.5 h after dosing, n = 1, LC-MS/MS) was 352 ng/mL, the level at 2 h (20 mg, Plasma concentration, geometric mean (CV%), 20 mg SC, day 18 cycle 2, 2 h after dosing, n = 1, LC-MS/MS) was 386 ng/mL and the level at 3.5 h (20 mg, Plasma concentration, geometric mean (CV%), 20 mg SC, day 18 cycle 2, 3.5 h after dosing, n = 1, LC-MS/MS) was 162 ng/mL. The Tmax (20 mg, 20 mg SC, day 1 cycle 1, n = 1) was 1.5 h, the Tmax (20 mg, 20 mg SC, day 3 cycle 1, n = 1) was 1 h and the Tmax (20 mg, 20 mg SC, day 18 cycle 1, n = 1) was 1.02 h. It also gave an AUC(0-t) [1] of 1920 ng·h/mL, an AUC(0-t) [2] of 898 ng·h/mL and an AUC(0-t) [3] of 1840 ng·h/mL. It also gave an AUC(0-t) [4] of 1950 ng·h/mL, a Cmax [1] of 592 ng/mL and a Cmax [2] of 759 ng/mL. For the same sequence, the Cmax [3] was 405 ng/mL, the level at 0.25 h [5] was 316 ng/mL and the level at 0.75 h [5] was 556 ng/mL. It also gave a level at 1.5 h (40 mg, Plasma concentration, geometric mean (CV%), 40 mg SC, day 1 cycle 1, 1.5 h after dosing, n = 1, LC-MS/MS) of 592 ng/mL, a level at 2 h (40 mg, Plasma concentration, geometric mean (CV%), 40 mg SC, day 1 cycle 1, 2 h after dosing, n = 1, LC-MS/MS) of 540 ng/mL and a level at 3 h [5] of 368 ng/mL. It also gave a level at 4 h [5] of 223 ng/mL, a level at 5 h (40 mg, Plasma concentration, geometric mean (CV%), 40 mg SC, day 1 cycle 1, 5 h after dosing, n = 1, LC-MS/MS) of 158 ng/mL and a level at 0.5 h (40 mg, Plasma concentration, geometric mean (CV%), 40 mg SC, day 3 cycle 1, 0.5 h after dosing, n = 1, LC-MS/MS) of 264 ng/mL. The level at 1 h (40 mg, Plasma concentration, geometric mean (CV%), 40 mg SC, day 3 cycle 1, 1 h after dosing, n = 1, LC-MS/MS) was 444 ng/mL, the level at 1.5 h (40 mg, Plasma concentration, geometric mean (CV%), 40 mg SC, day 3 cycle 1, 1.5 h after dosing, n = 1, LC-MS/MS) was 759 ng/mL and the level at 2 h (40 mg, Plasma concentration, geometric mean (CV%), 40 mg SC, day 3 cycle 1, 2 h after dosing, n = 1, LC-MS/MS) was 656 ng/mL. For the same sequence, the level at 0.5 h (40 mg, Plasma concentration, geometric mean (CV%), 40 mg SC, day 18 cycle 1, 0.5 h after dosing, n = 1, LC-MS/MS) was 348 ng/mL, the level at 1 h (40 mg, Plasma concentration, geometric mean (CV%), 40 mg SC, day 18 cycle 1, 1 h after dosing, n = 1, LC-MS/MS) was 405 ng/mL and the level at 1.5 h (40 mg, Plasma concentration, geometric mean (CV%), 40 mg SC, day 18 cycle 1, 1.5 h after dosing, n = 1, LC-MS/MS) was 397 ng/mL. The level at 2 h (40 mg, Plasma concentration, geometric mean (CV%), 40 mg SC, day 18 cycle 1, 2 h after dosing, n = 1, LC-MS/MS) was 368 ng/mL, the level at 3.5 h (40 mg, Plasma concentration, geometric mean (CV%), 40 mg SC, day 18 cycle 1, 3.5 h after dosing, n = 1, LC-MS/MS) was 377 ng/mL and the level at 5 h (40 mg, Plasma concentration, geometric mean (CV%), 40 mg SC, day 18 cycle 1, 5 h after dosing, n = 1, LC-MS/MS) was 113 ng/mL. For the same sequence, the level at 0.5 h (40 mg, Plasma concentration, geometric mean (CV%), 40 mg SC, day 18 cycle 2, 0.5 h after dosing, n = 1, LC-MS/MS) was 384 ng/mL, the level at 1 h (40 mg, Plasma concentration, geometric mean (CV%), 40 mg SC, day 18 cycle 2, 1 h after dosing, n = 1, LC-MS/MS) was 583 ng/mL and the level at 1.5 h (40 mg, Plasma concentration, geometric mean (CV%), 40 mg SC, day 18 cycle 2, 1.5 h after dosing, n = 1, LC-MS/MS) was 565 ng/mL. The level at 2 h (40 mg, Plasma concentration, geometric mean (CV%), 40 mg SC, day 18 cycle 2, 2 h after dosing, n = 1, LC-MS/MS) was 571 ng/mL, the level at 3.5 h (40 mg, Plasma concentration, geometric mean (CV%), 40 mg SC, day 18 cycle 2, 3.5 h after dosing, n = 1, LC-MS/MS) was 347 ng/mL and the Tmax [1] was 1.63 h. The Tmax [2] was 1.5 h, the Tmax [3] was 1 h and the Tmax [4] was 1.03 h. The AUC(0-t) [6] was 3380 ng·h/mL, the AUC(0-t) [7] was 2970 ng·h/mL and the AUC(0-t) [8] was 3500 ng·h/mL. It also gave an AUC(0-t) [9] of 3230 ng·h/mL, a Cmax [6] of 835 ng/mL and a Cmax [7] of 861 ng/mL. For the same sequence, the Cmax [8] was 1090 ng/mL, the Cmax [9] was 849 ng/mL and the level at 0.25 h [10] was 292 ng/mL. The level at 0.75 h [10] was 700 ng/mL, the level at 1.5 h (80 mg, Plasma concentration, geometric mean (CV%), 80 mg SC, day 1 cycle 1, 1.5 h after dosing, n = 3, LC-MS/MS) was 800 ng/mL and the level at 2 h (80 mg, Plasma concentration, geometric mean (CV%), 80 mg SC, day 1 cycle 1, 2 h after dosing, n = 3, LC-MS/MS) was 727 ng/mL. It also gave a level at 3 h [10] of 689 ng/mL, a level at 4 h [10] of 556 ng/mL and a level at 5 h (80 mg, Plasma concentration, geometric mean (CV%), 80 mg SC, day 1 cycle 1, 5 h after dosing, n = 3, LC-MS/MS) of 359 ng/mL. The level at 6 h (80 mg, Plasma concentration, geometric mean (CV%), 80 mg SC, day 1 cycle 1, 6 h after dosing, n = 3, LC-MS/MS) was 248 ng/mL, the level at 0.5 h (80 mg, Plasma concentration, geometric mean (CV%), 80 mg SC, day 3 cycle 1, 0.5 h after dosing, n = 3, LC-MS/MS) was 578 ng/mL and the level at 1 h (80 mg, Plasma concentration, geometric mean (CV%), 80 mg SC, day 3 cycle 1, 1 h after dosing, n = 3, LC-MS/MS) was 684 ng/mL. For the same sequence, the level at 1.5 h (80 mg, Plasma concentration, geometric mean (CV%), 80 mg SC, day 3 cycle 1, 1.5 h after dosing, n = 3, LC-MS/MS) was 827 ng/mL, the level at 2 h (80 mg, Plasma concentration, geometric mean (CV%), 80 mg SC, day 3 cycle 1, 2 h after dosing, n = 3, LC-MS/MS) was 826 ng/mL and the level at 3.5 h (80 mg, Plasma concentration, geometric mean (CV%), 80 mg SC, day 3 cycle 1, 3.5 h after dosing, n = 3, LC-MS/MS) was 524 ng/mL. The level at 5 h (80 mg, Plasma concentration, geometric mean (CV%), 80 mg SC, day 3 cycle 1, 5 h after dosing, n = 3, LC-MS/MS) was 325 ng/mL, the level at 0.5 h (80 mg, Plasma concentration, geometric mean (CV%), 80 mg SC, day 18 cycle 1, 0.5 h after dosing, n = 2, LC-MS/MS) was 769 ng/mL and the level at 1 h (80 mg, Plasma concentration, geometric mean (CV%), 80 mg SC, day 18 cycle 1, 1 h after dosing, n = 2, LC-MS/MS) was 946 ng/mL. It also gave a level at 1.5 h (80 mg, Plasma concentration, geometric mean (CV%), 80 mg SC, day 18 cycle 1, 1.5 h after dosing, n = 2, LC-MS/MS) of 884 ng/mL, a level at 2 h (80 mg, Plasma concentration, geometric mean (CV%), 80 mg SC, day 18 cycle 1, 2 h after dosing, n = 2, LC-MS/MS) of 1060 ng/mL and a level at 3.5 h (80 mg, Plasma concentration, geometric mean (CV%), 80 mg SC, day 18 cycle 1, 3.5 h after dosing, n = 2, LC-MS/MS) of 545 ng/mL. The level at 5 h (80 mg, Plasma concentration, geometric mean (CV%), 80 mg SC, day 18 cycle 1, 5 h after dosing, n = 2, LC-MS/MS) was 407 ng/mL, the level at 0.5 h (80 mg, Plasma concentration, geometric mean (CV%), 80 mg SC, day 18 cycle 2, 0.5 h after dosing, n = 1, LC-MS/MS) was 394 ng/mL and the level at 1 h (80 mg, Plasma concentration, geometric mean (CV%), 80 mg SC, day 18 cycle 2, 1 h after dosing, n = 1, LC-MS/MS) was 808 ng/mL. The level at 1.5 h (80 mg, Plasma concentration, geometric mean (CV%), 80 mg SC, day 18 cycle 2, 1.5 h after dosing, n = 1, LC-MS/MS) was 659 ng/mL, the level at 2 h (80 mg, Plasma concentration, geometric mean (CV%), 80 mg SC, day 18 cycle 2, 2 h after dosing, n = 1, LC-MS/MS) was 639 ng/mL and the level at 3.5 h (80 mg, Plasma concentration, geometric mean (CV%), 80 mg SC, day 18 cycle 2, 3.5 h after dosing, n = 1, LC-MS/MS) was 849 ng/mL. For the same sequence, the Tmax [6] was 1.53 h and the Tmax (80 mg, 80 mg SC, day 18 cycle 1, n = 2) was 1.23 h.
